Test results: patent publication US12338199B2, “Bis-octahydrophenanthrene carboxamides and protein conjugates thereof” (REGENERON PHARMACEUTICALS, INC., priority 2017, dated 2025)
Counter-ions that a name gives are not always drawn.

Assays:
THP1/LXR-Luc cells = assay: THP1/LXR-Luc luciferase reporter bioassay; assay type: cell-based; conditions: Homo sapiens, THP-1, 48 hours; for EC50: read-out: Activation of THP1/LXR-Luc cells: EC50; for Emax: relative to maximum activation of free payload 9d, read-out: Activation of THP1/LXR-Luc cells: Fold of activation
Excerpt: The fold activation in the cell-based assays (as described in Example 68, below) was defined based on the maximum activation of the free payload 9d.
A bioassay was developed to assess the activity of LXR agonists after internalization of an agonist or of a ncADC into cells and binding to LXR, a nuclear receptor, using a commercially available LXR reporter (referred to as LXR-Luc) that contains the firefly luciferase gene under control by minimal CMV promoter and tandem repeats of the LXR transcriptional response element. For this assay, a THP1 cell line, which is a human monocytic leukaemia line, was engineered to express full length human Her2 (expressing amino acids M1 through V1255 of accession number NP_004439.2). The subsequent stable cell line was further transduced with a Cignal LXR Luc Reporter (Qiagen, Cat # CLS-7041L). The resulting stable cell line is referred to herein as THP1/Her2/LXR-Luc. The Her2 cell surface expression on THP1/Her2/LXR-Luc cell line was confirmed by FACS (data not shown).
Additionally, a THP1 cell line was transduced with a Cignal LXR Luc Reporter (Qiagen, Cat # CLS-7041L) without the addition of Her2. The resulting stable cell line is referred to herein as THP1/LXR-Luc. All of the antibodies used in the subsequent bioassays were assessed for their ability to internalize and release a payload on the bioassay cell line used.
This example assessed the ability of the LXR agonists provided herein, reference compounds, and anti-Her2 antibody-LXR ncADC to activate LXR. The samples were tested in the THP1/LXR-Luc/Her2 bioassay. For the assay, either THP1/LXR-Luc cells or THP1/LXR-Luc/Her2 cells were seeded onto white 96 well plates at 30,000 cells/well in media containing RPMI supplemented with 10% FBS and pencillin/streptomycin (complete media). Subsequently 3-fold serial dilutions of antibody drug conjugates, unconjugated antibodies, or free payloads were added to the cells at final concentration ranging from 100 nM to 0.01 nM. After 48-hour or 72-hour incubation, luciferase activity was determined after the addition of One-Glo™ reagent (Promega, Cat # E6130) to each well of cells. Relative light units (RLUs) were measured on a Victor luminometer (PerkinElmer) and the EC5o values were determined using a four-parameter logistic equation over a 10-point dose response curve (GraphPad Prism) (FIG. 15). The fold activation is calculated based on the maximum activation of the free payload 9d.

LXR alpha = target: T1, LXR alpha (Homo sapiens, UniProt Q13133); assay: LanthaScreen TR-FRET LXR alpha Coactivator Assay (cell-free binding); conditions: TR-FRET, 12-point curve; read-out: Cell free binding LXRα IC50
T1 construct: LXR alpha or beta LBD-GST; purchased ThermoFisher PV4655
T1 sequence (Q13133 209-447 limits assumed): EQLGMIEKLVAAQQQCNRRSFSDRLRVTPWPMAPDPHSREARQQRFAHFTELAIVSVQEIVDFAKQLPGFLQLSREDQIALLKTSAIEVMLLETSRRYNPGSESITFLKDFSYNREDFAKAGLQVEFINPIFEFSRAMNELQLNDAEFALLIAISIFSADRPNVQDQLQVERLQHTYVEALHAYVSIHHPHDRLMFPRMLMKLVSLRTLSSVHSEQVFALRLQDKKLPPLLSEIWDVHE
Protocol: (§1) To evaluate the ability of novel LXR agonists to bind to the LXR alpha and beta receptor, a cell-free binding assay was performed using a LanthaScreen TR-FRET LXR alpha Coactivator Assay Kit (ThermoFisher, Cat # PV4655) and LXR beta Coactivator Assay Kit (ThermoFisher, Cat # PV4658). The assay was performed according to the manufacturer's instructions. Briefly, a 3-fold serial dilution of LXR agonists were prepared in 100% DMSO starting at 100 μM (100× of final). Serial dilutions were further diluted 50-fold in nuclear receptor buffer F with 5 mM DTT, and transferred to a 384-well assay plate. Next, Fluorescein-D22, LXR alpha or beta LBD-GST, and Tb anti-GST antibody was sequentially added to 384-well assay plate. The plate was then incubated at rt for 2.5 hours while being protected from light. […] The IC50 values were determined using a four-parameter logistic equation over a 12-point response curve (GraphPad Prism).

LXR beta = target: T2, LXR beta (Homo sapiens, UniProt P55055); assay: LanthaScreen TR-FRET LXR beta Coactivator Assay (cell-free binding); conditions: TR-FRET, 12-point curve; read-out: Cell free binding LXRβ IC50
T2 construct: LXR alpha or beta LBD-GST; purchased ThermoFisher PV4658
T2 sequence (P55055 222-460 limits assumed): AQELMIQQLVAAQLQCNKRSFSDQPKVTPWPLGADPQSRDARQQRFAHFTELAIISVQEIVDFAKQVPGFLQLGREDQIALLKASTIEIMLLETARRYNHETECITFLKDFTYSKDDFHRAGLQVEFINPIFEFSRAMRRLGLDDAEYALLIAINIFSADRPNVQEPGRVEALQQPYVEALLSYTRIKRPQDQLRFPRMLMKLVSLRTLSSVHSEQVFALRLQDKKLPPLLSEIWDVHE
Protocol: as §1

With `C[C@]1(C(=O)NC(=O)[C@@]2(C)CCC[C@]3(C)c4cc(NC(=O)CCN)ccc4CC[C@@H]23)CCC[C@]2(C)c3cc(O)ccc3CC[C@@H]12` [Compound 9i, (1S,4aS,10aR)-6-(3-Aminopropanamido)-N-((1S,4aS,10aR)-6-hydroxy-1,4a-dimethyl-1,2,3,4,4a,9,10,10a-octahydrophenanthrene-1-carbonyl)-1,4a-dimethyl-1,2,3,4,4a,9,10,10a-octahydrophenanthrene-1-carboxamide] the EC50 (THP1/LXR-Luc cells) was 0.01 to 0.1 µM, the Emax (THP1/LXR-Luc cells) was 25 to 75% and the IC50 (LXR alpha) was < 0.01 µM. For the same molecule, the IC50 (LXR beta) was < 0.01 µM.

For `C[C@]1(C(=O)NC(=O)[C@@]2(C)CCC[C@]3(C)c4cc(NC(=O)[C@@H](N)Cc5c[nH]cn5)ccc4CC[C@@H]23)CCC[C@]2(C)c3cc(O)ccc3CC[C@@H]12` [Compound 9m, (1S,4aS,10aR)—N-[(1S,4aS,10aR)-6-Hydroxy-1,4a-dimethyl-1,2,3,4,4a,9,10,10a-octahydrophenanthrene-1-carbonyl]-6-[(2S)-2-amino-3-(1H-imidazol-4-yl)propanamido]-1,4a-dimethyl-1,2,3,4,4a,9,10,10a-octahydrophenanthrene-1-carboxamide; trifluoroacetic acid salt], the EC50 (THP1/LXR-Luc cells) was 0.001 to 0.01 µM, the Emax (THP1/LXR-Luc cells) was > 75% and the IC50 (LXR alpha) was 0.01 to 0.1 µM. For the same molecule, the IC50 (LXR beta) was < 0.01 µM.

`CN(C)c1ccc2c(c1)[C@@]1(C)CCC[C@](C)(C(=O)NC(=O)[C@@]3(C)CCC[C@]4(C)c5cc(O)ccc5CC[C@@H]34)[C@@H]1CC2` [Compound 9f, (1S,4aS,10aR)-6-(Dimethylamino)-N-((1S,4aS,10aR)-6-hydroxy-1,4a-dimethyl-1,2,3,4,4a,9,10,10a-octahydrophenanthrene-1-carbonyl)-1,4a-dimethyl-1,2,3,4,4a,9,10,10a-octahydrophenanthrene-1-carboxamide] was tested, and the EC50 (THP1/LXR-Luc cells) was 0.001 to 0.01 µM, the Emax (THP1/LXR-Luc cells) was > 75% and the IC50 (LXR alpha) was < 0.01 µM. The IC50 (LXR beta) was < 0.01 µM.

`C[C@]1(C(=O)NC(=O)[C@@]2(C)CCC[C@]3(C)c4cc(NC(=O)CCCC(=O)O)ccc4CC[C@@H]23)CCC[C@]2(C)c3cc(O)ccc3CC[C@@H]12` [Compound 9q, 4-{[(4bS,8S,8aR)-8-{[(1S,4aS,10aR)-6-Hydroxy-1,4a-dimethyl-1,2,3,4,4a,9,10,10a-octahydrophenanthrene-1-carbonyl]carbamoyl}-4b,8-dimethyl-4b,5,6,7,8,8a,9,10-octahydrophenanthren-3-yl]carbamoyl}butanoic Acid] was tested, and the EC50 (THP1/LXR-Luc cells) was 0.01 to 0.1 µM, the Emax (THP1/LXR-Luc cells) was > 75% and the IC50 (LXR alpha) was < 0.01 µM. The IC50 (LXR beta) was < 0.01 µM.

For `C[C@]1(C(=O)NC(=O)[C@@]2(C)CCC[C@]3(C)c4cc(OCCO)ccc4CC[C@@H]23)CCC[C@]2(C)c3cc(O)ccc3CC[C@@H]12` [Compound 9b, (1S,4aS,10aR)-6-Hydroxy-N-((1S,4aS,10aR)-6-(2-hydroxyethoxy)-1,4a-dimethyl-1,2,3,4,4a,9,10,10a-octahydrophenanthrene-1-carbonyl)-1,4a-dimethyl-1,2,3,4,4a,9,10,10a-octahydrophenanthrene-1-carboxamide], the EC50 (THP1/LXR-Luc cells) was 0.001 to 0.01 µM, the Emax (THP1/LXR-Luc cells) was > 75% and the IC50 (LXR alpha) was < 0.01 µM. The IC50 (LXR beta) was < 0.01 µM.

With `C[C@]1(C(=O)NC(=O)[C@@]2(C)CCC[C@]3(C)c4cc(NC(=O)[C@@H](N)CC(=O)O)ccc4CC[C@@H]23)CCC[C@]2(C)c3cc(O)ccc3CC[C@@H]12` [Compound 9n, (3S)-3-Amino-3-{[(4bS,8S,8aR)-8-{[(1S,4aS,10aR)-6-hydroxy-1,4a-dimethyl-1,2,3,4,4a,9,10,10a-octahydrophenanthrene-1-carbonyl]carbamoyl}-4b,8-dimethyl-4b,5,6,7,8,8a,9,10-octahydrophenanthren-3-yl]carbamoyl}propanoic Acid] the EC50 (THP1/LXR-Luc cells) was ≤ 0.001 µM, the Emax (THP1/LXR-Luc cells) was > 75% and the IC50 (LXR alpha) was 0.01 to 0.1 µM. The IC50 (LXR beta) was < 0.01 µM.

In the case of `C[C@]1(C(=O)NC(=O)[C@@]2(C)CCC[C@]3(C)c4cc(N5CCNCC5)ccc4CC[C@@H]23)CCC[C@]2(C)c3cc(O)ccc3CC[C@@H]12` [Compound 9e, (1S,4aS,10aR)—N-((1S,4aS,10aR)-1,4a-Dimethyl-6-(piperazin-1-yl)-1,2,3,4,4a,9,10,10a-octahydrophenanthrene-1-carbonyl)-6-hydroxy-1,4a-dimethyl-1,2,3,4,4a,9,10,10a-octahydrophenanthrene-1-carboxamide], the EC50 (THP1/LXR-Luc cells) is reported as 0.001 to 0.01 µM, the Emax (THP1/LXR-Luc cells) is reported as > 75% and the IC50 (LXR alpha) is reported as < 0.01 µM. For the same molecule, the IC50 (LXR beta) was < 0.01 µM.

With `O=C(O)Cc1cccc(OCCCN(Cc2cccc(C(F)(F)F)c2Cl)CC(c2ccccc2)c2ccccc2)c1` [GW3965] the EC50 (THP1/LXR-Luc cells) was > 0.1 µM, the Emax (THP1/LXR-Luc cells) was > 75% and the IC50 (LXR alpha) was < 0.01 µM. For the same molecule, the IC50 (LXR beta) was < 0.01 µM.

For `CNCC(=O)Nc1ccc2c(c1)[C@@]1(C)CCC[C@](C)(C(=O)NC(=O)[C@@]3(C)CCC[C@]4(C)c5cc(O)ccc5CC[C@@H]34)[C@@H]1CC2` [Compound 9k, (1S,4aS,10aR)—N-((1S,4aS,10aR)-1,4a-Dimethyl-6-(2-(methylamino)acetamido)-1,2,3,4,4a,9,10,10a-octahydrophenanthrene-1-carbonyl)-6-hydroxy-1,4a-dimethyl-1,2,3,4,4a,9,10,10a-octahydrophenanthrene-1-carboxamide; Trifluoroacetic Acid Salt], the EC50 (THP1/LXR-Luc cells) was 0.001 to 0.01 µM, the Emax (THP1/LXR-Luc cells) was > 75% and the IC50 (LXR alpha) was 0.01 to 0.1 µM. For the same molecule, the IC50 (LXR beta) was < 0.01 µM.

In the case of `C[C@]1(CNC(=O)[C@@]2(C)CCC[C@]3(C)c4cc(O)ccc4CC[C@@H]23)CCC[C@]2(C)c3cc(O)ccc3CC[C@@H]12` [Compound 9u, (1S,4aS,10aR)—N-{[(1S,4aS,10aR)-6-Hydroxy-1,4a-dimethyl-1,2,3,4,4a,9,10,10a-octahydrophenanthren-1-yl]methyl}-6-hydroxy-1,4a-dimethyl-1,2,3,4,4a,9,10,10a-octahydrophenanthrene-1-carboxamide], the EC50 (THP1/LXR-Luc cells) is reported as 0.001 to 0.01 µM and the Emax (THP1/LXR-Luc cells) is reported as 25 to 75%.

In the case of `O=S(=O)(c1ccccc1)N(CC(F)(F)F)c1ccc(C(O)(C(F)(F)F)C(F)(F)F)cc1` [Compound T0901317, reference compound], the EC50 (THP1/LXR-Luc cells) is reported as 0.01 to 0.1 µM and the Emax (THP1/LXR-Luc cells) is reported as > 75%.

With `C[C@]1(C(=O)NC(=O)[C@@]2(C)CCC[C@]3(C)c4cc(O)ccc4CC[C@@H]23)CCC[C@]2(C)c3cc(O)ccc3CC[C@@H]12` [Compound 9a, (1S,4aS,10aR)-6-Hydroxy-N-((1S,4aS,10aR)-6-hydroxy-1,4a-dimethyl-1,2,3,4,4a,9,10,10a-octahydrophenanthrene-1-carbonyl)-1,4a-dimethyl-1,2,3,4,4a,9,10,10a-octahydrophenanthrene-1-carboxamide] the EC50 (THP1/LXR-Luc cells) was 0.001 to 0.01 µM and the Emax (THP1/LXR-Luc cells) was > 75%.
